Test results published in the supplement of paper PMC11208160.

Assay: recombinant barcode read abundance after kanamycin selection (control-corrected) (log10(CPM+1)); higher = more efficient recombination; sequences stand for … in AGTGCAGAGAAAATCGGCCAGTTTTCTCTGCCTGCAGTCCGCATGCCGT…AGATTTATGCAGCGGACTGCCTTTCTCCCAAAGTGATAAACCGGACAGTATCATGGACCGGTTTTCCCGGTAATCCGTATTTGCAAGGTTGGTTTCACT; site = the 11-nt target
Summary of the method: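 Recombination efficiency in this pooled E. coli screen uses counts per million of barcodes at recombinant junctions, averaged and corrected against the control. The reported form is log10(CPM+1). Two replicates were plated on chloramphenicol/ampicillin LB agar as control and two on chloramphenicol/ampicillin/kanamycin with 0.1 mM IPTG.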
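Further: IS621 recombinase and bridge RNA in Escherichia coli cells.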

| Sequence | recombinant barcode read abundance (log10) |
| --- | --- |
| TGGTGCGCTTGGGTTCTAACCTGTTGCCT (site TGGTGCGCTAG) | 1.21 |
| TGGTGCGCTTGGGTTCTAACCTGTTGCCT (site TGGTTCGCTAG) | 0.0427 |
| TGGTGTCCTTGGGTTCTAACCTGTTGCCA (site TCGAGTCCTTG) | 0.0738 |
| TGGTGTCCTTGGGTTCTAACCTGTTGCCA (site TGGTGTCCTTG) | 0.473 |
| TGGTGTCCTTGGGTTCTAACCTGTTGCCT (site TGGAGTCCTAG) | 0.32 |
| TGGTGTCCTTGGGTTCTAACCTGTTGCCT (site TGGCGTCCTAG) | 0.279 |
| TGGTGTCCTTGGGTTCTAACCTGTTGCCT (site TGGGGTCCTAG) | 0.158 |
| TGGTGTCCTTGGGTTCTAACCTGTTGCCT (site TGGTGTCCTAG) | 1.58 |
| TGGTTACCTTGGGTTCTAACCTGTTGCGG (site CACACGACTAA) | 0.0374 |
| TGGTTACCTTGGGTTCTAACCTGTTGCGG (site TGGTTACCTCC) | 1.49 |
| TGGTTGTCTTGGGTTCTAACCTGTTGCCT (site TGGCTGTCTAG) | 0.522 |
| TGGTTGTCTTGGGTTCTAACCTGTTGCCT (site TGGTTGTCTAG) | 1.09 |
| TGTACGACTTGGGTTCTAACCTGTTGCCT (site TGTACGACTAG) | 0.146 |
| TGTACGACTTGGGTTCTAACCTGTTGCCT (site TGTACGTCTAA) | 0.0793 |
| TGTACGACTTGGGTTCTAACCTGTTGCGG (site GAGTGTTCTAA) | 0.0347 |
| TGTACGACTTGGGTTCTAACCTGTTGCGG (site TGTACGACTCC) | 0.7 |
| TGTAGTACTTGGGTTCTAACCTGTTGCCT (site TGGAGTACTAA) | 0.0714 |
| TGTAGTACTTGGGTTCTAACCTGTTGCCT (site TGTAGTACTAG) | 0.229 |
| TGTATGACTTGGGTTCTAACCTGTTGCCT (site AGTATGACTAG) | 0.65 |
| TGTATGACTTGGGTTCTAACCTGTTGCCT (site CGTATGACTAG) | 0.0259 |
| TGTATGACTTGGGTTCTAACCTGTTGCCT (site GGTATGACTAG) | 0.263 |
| TGTATGACTTGGGTTCTAACCTGTTGCCT (site TGTATGACTAG) | 0.46 |

| Sequence | recombinant barcode read abundance (log10) |
| --- | --- |
| TGTATGTCTTGGGTTCTAACCTGTTGCCT (site AGTATGTCTAG) | 0.0212 |
| TGTATGTCTTGGGTTCTAACCTGTTGCCT (site CGTATGTCTAG) | 0.529 |
| TGTATGTCTTGGGTTCTAACCTGTTGCCT (site GGTATGTCTAG) | 0.402 |
| TGTATGTCTTGGGTTCTAACCTGTTGCCT (site TGTATGTCTAG) | 0.0364 |
| TGTCAACCTTGGGTTCTAACCTGTTGCGT (site TGTCAAACTAC) | 0.0902 |
| TGTCAACCTTGGGTTCTAACCTGTTGCGT (site TGTCAACCTAC) | 1.02 |
| TGTCAAGCTTGGGTTCTAACCTGTTGCCT (site TGTCAAACTAG) | 0.574 |
| TGTCAAGCTTGGGTTCTAACCTGTTGCCT (site TGTCAACCTAG) | 0.045 |
| TGTCAAGCTTGGGTTCTAACCTGTTGCCT (site TGTCAAGCTAG) | 0.46 |
| TGTCAAGCTTGGGTTCTAACCTGTTGCCT (site TGTCAATCTAG) | 0.295 |
| TGTCCACCTTGGGTTCTAACCTGTTGCCT (site AGTCCACCTAG) | 0.0595 |
| TGTCCACCTTGGGTTCTAACCTGTTGCCT (site CGTCCACCTAG) | 0.267 |
| TGTCCACCTTGGGTTCTAACCTGTTGCCT (site GGTCCACCTAG) | 0.165 |
| TGTCCACCTTGGGTTCTAACCTGTTGCCT (site TGTCCACCTAG) | 0.623 |
| TGTCGAGCTTGGGTTCTAACCTGTTGCGG (site TGTCGAGCTCC) | 0.977 |
| TGTCGAGCTTGGGTTCTAACCTGTTGCGG (site TTCCGAGCTCC) | 0.00866 |
| TGTCGGACTTGGGTTCTAACCTGTTGCAC (site TGTCGGACTAT) | 0.741 |
| TGTCGGACTTGGGTTCTAACCTGTTGCAC (site TGTCGGACTCT) | 0.214 |
| TGTCGGACTTGGGTTCTAACCTGTTGCAC (site TGTCGGACTGT) | 0.38 |
| TGTCGGACTTGGGTTCTAACCTGTTGCAC (site TGTCGGACTTT) | 0.0148 |
| TGTCGGCCTTGGGTTCTAACCTGTTGCTT (site CTATTTACTCC) | 0.107 |
| TGTCGGCCTTGGGTTCTAACCTGTTGCTT (site TGTCGGCCTAA) | 0 |

| Sequence | recombinant barcode read abundance (log10) |
| --- | --- |
| TGTCTCCCTTGGGTTCTAACCTGTTGCTT (site TGTCTACCTTA) | 0.0416 |
| TGTCTCCCTTGGGTTCTAACCTGTTGCTT (site TGTCTCCCTAA) | 0.777 |
| TGTGACACTTGGGTTCTAACCTGTTGCAA (site AACAGGCCTAG) | 0.121 |
| TGTGACACTTGGGTTCTAACCTGTTGCAA (site TGTGACACTTT) | 1.54 |
| TGTGAGTCTTGGGTTCTAACCTGTTGCCT (site TGTGAGTCTAA) | 0.0418 |
| TGTGAGTCTTGGGTTCTAACCTGTTGCCT (site TGTGAGTCTAC) | 0.73 |
| TGTGAGTCTTGGGTTCTAACCTGTTGCCT (site TGTGAGTCTAG) | 1.1 |
| TGTGAGTCTTGGGTTCTAACCTGTTGCCT (site TGTGAGTCTAT) | 0.0543 |
| TGTGAGTCTTGGGTTCTAACCTGTTGCTT (site TGTGAGTCTAA) | 0.549 |
| TGTGAGTCTTGGGTTCTAACCTGTTGCTT (site TGTGAGTCTAC) | 0.0217 |
| TGTGAGTCTTGGGTTCTAACCTGTTGCTT (site TGTGAGTCTAG) | 0.193 |
| TGTGAGTCTTGGGTTCTAACCTGTTGCTT (site TGTGAGTCTAT) | 0.799 |
| TGTGGGTCTTGGGTTCTAACCTGTTGCCT (site TATGGGTCTAG) | 0.0229 |
| TGTGGGTCTTGGGTTCTAACCTGTTGCCT (site TGTGGGTCTAG) | 0.393 |
| TGTGTCCCTTGGGTTCTAACCTGTTGCCG (site TGTCTCCCTCG) | 0.0681 |
| TGTGTCCCTTGGGTTCTAACCTGTTGCCG (site TGTGTCCCTCG) | 1.1 |
| TGTTAGCCTTGGGTTCTAACCTGTTGCCA (site GGTTAGCCTAG) | 0.0168 |
| TGTTAGCCTTGGGTTCTAACCTGTTGCCA (site TGTTAGCCTTG) | 0.0869 |
| TGTTAGCCTTGGGTTCTAACCTGTTGCCT (site GGCTAGCCTAG) | 0.0606 |
| TGTTAGCCTTGGGTTCTAACCTGTTGCCT (site TGTTAGCCTAG) | 0.0878 |
| TGTTGCACTTGGGTTCTAACCTGTTGCCT (site TGTTGCACTAG) | 0.0616 |
| TGTTGCACTTGGGTTCTAACCTGTTGCCT (site TGTTGGCCTAG) | 0.0587 |

| Sequence | recombinant barcode read abundance (log10) |
| --- | --- |
| TTAACTACTTGGGTTCTAACCTGTTGCTC (site TTAACTACTAA) | 0.0118 |
| TTAACTACTTGGGTTCTAACCTGTTGCTC (site TTAACTACTCA) | 0.126 |
| TTAACTACTTGGGTTCTAACCTGTTGCTC (site TTAACTACTGA) | 0.195 |
| TTAACTACTTGGGTTCTAACCTGTTGCTC (site TTAACTACTTA) | 0 |
| TTAAGACCTTGGGTTCTAACCTGTTGCCT (site TTAAGACCTAG) | 1.37 |
| TTAAGACCTTGGGTTCTAACCTGTTGCCT (site TTAAGCCCTAG) | 0.336 |
| TTAAGTCCTTGGGTTCTAACCTGTTGCCT (site TTAAGTCCTAG) | 0.448 |
| TTAAGTCCTTGGGTTCTAACCTGTTGCCT (site TTCAGTCCTAT) | 0.134 |
| TTACAATCTTGGGTTCTAACCTGTTGCCT (site ATACAATCTAG) | 0.31 |
| TTACAATCTTGGGTTCTAACCTGTTGCCT (site CTACAATCTAG) | 0.337 |
| TTACAATCTTGGGTTCTAACCTGTTGCCT (site GTACAATCTAG) | 0.0953 |
| TTACAATCTTGGGTTCTAACCTGTTGCCT (site TTACAATCTAG) | 0.764 |
| TTACCTACTTGGGTTCTAACCTGTTGCCT (site TTACCAACTAG) | 0.237 |
| TTACCTACTTGGGTTCTAACCTGTTGCCT (site TTACCCACTAG) | 0.0698 |
| TTACCTACTTGGGTTCTAACCTGTTGCCT (site TTACCGACTAG) | 0.278 |
| TTACCTACTTGGGTTCTAACCTGTTGCCT (site TTACCTACTAG) | 0.802 |
| TTACGAGCTTGGGTTCTAACCTGTTGCCT (site TCACTAGCTAG) | 0.131 |
| TTACGAGCTTGGGTTCTAACCTGTTGCCT (site TTACGAGCTAG) | 1.08 |
| TTACGCACTTGGGTTCTAACCTGTTGCCT (site TAACCCACTAG) | 0.264 |
| TTACGCACTTGGGTTCTAACCTGTTGCCT (site TTACGCACTAG) | 1.34 |
